Type in all cases: cell-based
One series has as its target T1, human MRGPRX2 (Homo sapiens, UniProt Q96LB1).
T1 construct: expressed in transfected cells; host or cells: FlpIn TRex HEK293 (TRex-MRGPRX2-HEK), doxycycline-induced
T1 sequence (Q96LB1 1-330): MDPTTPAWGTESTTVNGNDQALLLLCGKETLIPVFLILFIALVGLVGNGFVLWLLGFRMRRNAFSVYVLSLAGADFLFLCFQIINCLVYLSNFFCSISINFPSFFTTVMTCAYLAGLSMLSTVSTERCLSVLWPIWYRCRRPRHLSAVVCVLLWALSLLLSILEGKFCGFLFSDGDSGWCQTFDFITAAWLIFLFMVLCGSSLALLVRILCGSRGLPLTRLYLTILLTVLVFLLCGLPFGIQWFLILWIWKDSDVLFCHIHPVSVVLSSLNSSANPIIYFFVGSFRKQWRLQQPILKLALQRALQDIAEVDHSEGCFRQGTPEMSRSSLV
As to the kind of experiment: MRGPRX2 Activity Assay (IP-1 HTRF, antagonist mode). The following applies: FlpIn TRex-MRGPRX2-HEK293 cells; versus 1 μM Cortistatin-14 agonist; 30 minutes preincubation. In a few lines:
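Doxycycline-induced (100 ng/mL, 18-24 h) TRex HEK293 cells stably expressing human MRGPRX2, in HBSS/20 mM HEPES/0.1% BSA/10 mM LiCl. Compounds (top final 30 uM, 1% DMSO) preincubated 30 min, then agonist stimulation 1 h at 37° C without wash. IP-1 accumulation read by HTRF; IC50 from 4-parameter fit.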
Background: Time-resolved FRET reads energy transfer from a long-lived donor to a nearby acceptor.

Series [1] deals with LAD-2 cells. As to the kind of experiment: LAD2 Degranulation Assay (Protocol 2), β-hexosaminidase release. The following applies: Homo sapiens; for IC50: 0.5 μM Cortistatin-14, 2 h preincubation, cells without SCF 18-24 hours, top concentration 3 μM; for activity at 0.25 µM: single point 250 nM, 0.5 μM Cortistatin-14, % control β-hexosaminidase activity. In a few lines: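 After 18–24 h SCF withdrawal, 4,000 cells/well in HEPES buffer pH 7.40 got compound for 2 h (1:3 series from 3 μM top, or 250 nM single point; 0.1% DMSO), then 0.5 μM cortistatin-14 for 30 min at 37 °C. Supernatant β-hexosaminidase: 1 mM 4-MU-GlcNAc, pH 4.5, 1 h, 355/460 nm; 4-parameter IC50 or % control.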

Another series deals with T2, hERG channel (Homo sapiens, UniProt Q12809).
T2 construct: host or cells: hERG-T-Rex 293 (HEK 293), doxycycline-induced
The series can be described thus: hERG Safety Evaluation by Manual Patch-Clamp System. Conditions: hERG-T-Rex 293 cells, whole cell patch-clamp at 35° C. Here is the method:
A stable BIEK 293 cell line with inducible hERG channel expression (hERG-T-Rex 293, Invitrogen cat #K1236) was cultured in medium containing 85% DMVEM, 10% dialyzed FBS, 0.1 mM NEAA, 25 mM HEPES, 100 U/mL Penicillin-Streptomycin, 5 μg/mL Blasticidin and 400 μg/mL Geneticin. Before the assay, cells were induced with doxycycline at 1 μg/mL for 48 hours. On the experiment day, the induced cells were resuspended and plated onto coverslips at 5×10^5 cells/per 3.5 cm cell culture dish prior to use and cultured in medium without Blasticidin and Geneticin.
Electrophysiology recordings were performed in extracellular solution (ECS) containing (in mM): 132 NaCl, 4 KCl, 3 CaCl2), 0.5 MgCl2, 11.1 D-(+) glucose, and 10 HEPES (pH adjusted to 7.35 with NaOH, osmolarity 285-295 mOsm). Recording pipets contained (in mM) 10 NaCl, 10 KCl, 110 KF, 10 EGTA, and 10 HEPES (pH adjusted to 7.2 with KOH, osmolarity 285-295 mOsm).
Test and positive control (dofetilide) compounds were solubilized in 100% DMSO at 10 mM or 75 mM, respectively. Intermediate dilutions of compounds were prepared by serial dilution in 100% DMSO, after which working solutions were prepared in ECS (final DMSO concentration=0.1-1% v/v for test compounds, and 0.1% for dofetilide). […]
Whole cell recordings of voltage-clamped cells were performed at 35° C., with all working solutions heated to 34° C. in a water bath before administration. Current recordings were collected at 20 kHz with a 10 kHz filter and were compensated for capacitance. Cells were clamped at −60 mV, and leak current was tested at −80 mV for 500 ms. The hERG current was elicited by depolarizing at +30 mV for 4.8 seconds and then the voltage was taken back to −50 mV for 5.2 seconds to remove the inactivation and observe the deactivating tail current. Recordings were continued for 120 seconds to assess current stability. Only stable cells with recording parameters above threshold were used in compound administration experiments. Vehicle control was applied to cells to establish baseline. […] For dose response testing, test compound was applied to the cells cumulatively from low to high concentrations. Dofetilide at concentration of 450 nM was also applied to each cell post-hERG current measurement at the highest concentration of test compound as the internal low control for normalization of percentage inhibition. Dofetilide (5 doses) response was performed as positive hERG inhibition control for each batch of cells.
The following criteria were used to determine data acceptability: 1) Initial seal resistance>1 GΩ; 2) Leak currents<50% of the control peak tail currents at any time; 3) Normal test pulse current waveform (e.g., hERG peak tail) current amplitude greater than prepulse current amplitude and the peak tail amplitude>250 pA; 4) Membrane resistance Rm>500 MΩ; 5) Access resistance (Ra)<15 MΩ; 6) Apparent run-down of peak current<2.5% per min. Percent current inhibition was calculated as (1−(Peak tail currentcompound−Peak tail currentpositive control)/(Peak tail currentBlank vehicle−Peak tail currentpositive control))×100. PatchMaster software was used to extract the peak current from the original data. The dose response curve of test compounds was plotted with % inhibition against the concentration of test compounds using Graphpad Prism 8.0, and the data fit to a sigmoid dose-response curve with a variable slope.

Series [2] deals with LAD-2 cells. As to the kind of experiment: LAD2 Degranulation Assay (Protocol 1), β-hexosaminidase release. The following applies: Homo sapiens, 1 μM Cortistatin-14, 30 minute preincubation, top concentration 3 μM. The protocol:
LAD-2 cells were maintained at 37° C. with 5% CO2 and grown in complete StemPro-34 media supplemented with 1% L-Glutamate, 1% penicillin/streptomycin, and 250 ng/mL human SCF.
On the day of experiment, cells were collected by centrifugation and seeded in 384-well assay plates, at 4,000 cells per well in 10 μl freshly made assay buffer (10 mM HEPES, 130 mM NaCl, 5 mM KCl, 1.8 mM CaCl2), 1.0 mM MgCl2, 5.6 mM glucose, 0.1% BSA, pH=7.40). For dose-response assays, compounds solubilized in 100% DMSO at 30 mM were serially diluted (1:3) first in 100% DMSO, and 2 intermediate dilutions with assay buffer were used to establish a final top concentration of 3 μM (in assay plate). Final DMSO concentration was kept constant at 0.1% across plates for all assays. Cortistatin-14 at 30 mM stock concentration was solubilized in HBSS+0.1% BSA, stored at −20° C. in 5 μl aliquots and discarded after one freeze-thaw cycle. Final concentration of agonist used in both dose-response and single point assays was 1 μM, prepared in assay buffer.
Antagonist equilibrium was established with 30 minute preincubation, followed by no wash, direct addition, and stimulation of agonist for 30 minutes at 37° C. For detection of β-hexosaminidase activity, assay plates were centrifuged and 5 μl of cell-free supernatant from each assay well was transferred to a black-walled black-bottomed 384-well plate. Substrate solution (1 mM 4-Methylumbelliferyl N-acetyl-β-D-glucosaminide in citrate buffer, pH=4.5, 15 μl) was added to each well and plates were incubated for 1 hour at 37° C. The plate was read on an EnVision XCite plate reader for umbelliferone fluorescence intensity (λex=355 nm, λem=460 nm). Background-subtracted data was analyzed using either GraphPad Prism or a custom Python script to calculate IC50 using either Log[Antagonist] vs. response (4 parameter) nonlinear regression (dose-response assays).

T2 sequence (Q12809 whole entry): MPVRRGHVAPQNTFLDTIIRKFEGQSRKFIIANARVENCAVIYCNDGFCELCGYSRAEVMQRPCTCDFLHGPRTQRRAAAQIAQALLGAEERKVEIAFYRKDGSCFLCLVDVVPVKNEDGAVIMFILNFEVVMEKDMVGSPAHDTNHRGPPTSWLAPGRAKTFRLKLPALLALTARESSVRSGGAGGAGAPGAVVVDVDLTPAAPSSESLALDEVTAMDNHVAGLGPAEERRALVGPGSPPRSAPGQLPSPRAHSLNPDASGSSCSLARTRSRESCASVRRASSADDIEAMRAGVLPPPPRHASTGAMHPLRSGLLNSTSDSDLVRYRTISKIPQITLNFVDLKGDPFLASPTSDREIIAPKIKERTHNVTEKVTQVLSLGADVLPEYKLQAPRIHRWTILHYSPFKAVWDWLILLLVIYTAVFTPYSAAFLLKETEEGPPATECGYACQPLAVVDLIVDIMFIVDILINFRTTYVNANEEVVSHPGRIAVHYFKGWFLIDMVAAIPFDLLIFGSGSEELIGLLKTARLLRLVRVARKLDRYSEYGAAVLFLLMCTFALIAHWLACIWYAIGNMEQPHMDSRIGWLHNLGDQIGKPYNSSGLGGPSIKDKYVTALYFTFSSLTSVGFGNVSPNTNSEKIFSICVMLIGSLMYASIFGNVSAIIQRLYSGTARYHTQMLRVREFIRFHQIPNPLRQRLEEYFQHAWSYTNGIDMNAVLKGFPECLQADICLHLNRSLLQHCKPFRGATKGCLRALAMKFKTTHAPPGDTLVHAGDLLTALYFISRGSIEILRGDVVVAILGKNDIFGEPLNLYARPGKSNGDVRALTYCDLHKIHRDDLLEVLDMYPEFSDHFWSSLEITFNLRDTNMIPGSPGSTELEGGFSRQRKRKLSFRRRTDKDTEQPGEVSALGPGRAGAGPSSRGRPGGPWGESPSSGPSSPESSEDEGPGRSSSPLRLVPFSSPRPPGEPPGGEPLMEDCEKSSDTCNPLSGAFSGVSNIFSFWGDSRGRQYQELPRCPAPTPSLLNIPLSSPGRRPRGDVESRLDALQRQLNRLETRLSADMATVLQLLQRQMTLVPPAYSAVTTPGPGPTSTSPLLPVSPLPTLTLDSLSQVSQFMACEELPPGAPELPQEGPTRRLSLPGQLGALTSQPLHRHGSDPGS

By IC50 is commonly meant the concentration that inhibits the measured activity by half. On to `C[C@@H](C(=O)Nc1cn2c(n1)CC[C@@H]2c1cc(F)cc(F)c1)N1CCC(F)(F)[C@@H](c2cc[n+]([O-])cc2)C1` (single isomer, unassigned) [Compound 489], for which, at human MRGPRX2, the IC50 turned out to be 13 nM. In the series on LAD-2 cells [1], this compound yielded an IC50 of 9.5 nM and an activity at 0.25 µM of 14%. Besides, on hERG channel, the “hERG Inhibition (%) @ 1 μM” value is reported as 12% and the “hERG Inhibition (%) @ 20 μM” value came to 47%.

Take `C[C@H](C(=O)Nc1cn(Cc2cc(F)cc(F)c2)cn1)N1CCC(F)(F)[C@@H](c2cc[n+]([O-])cc2)C1` (single isomer, unassigned) [Compound 5]: the results for the IC50 at human MRGPRX2 and with LAD-2 cells [2] were 9 nM and 14 nM, respectively. The “hERG Inhibition (%) @ 1 μM” value at hERG channel is recorded as 3%. On hERG channel, the “hERG Inhibition (%) @ 20 μM” value turned out to be 35%.

On to `C[C@@H](C(=O)Nc1nc2cc3c(cc2s1)OCO3)N1CCC(F)(F)[C@@H](c2cc[n+]([O-])cc2)C1` (single isomer, unassigned) [Compound 11], for which the values for the IC50 at human MRGPRX2 and with LAD-2 cells [2] were 3.7 nM and 12 nM, respectively. Besides, the “hERG Inhibition (%) @ 1 μM” value at hERG channel came to 11%. The “hERG Inhibition (%) @ 20 μM” value at hERG channel stood at 62%.

Consider `C[C@@H](C(=O)Nc1cn(Cc2ccc(F)cc2F)cn1)N1CCC(F)(F)[C@@H](c2cc[n+]([O-])cc2)C1` (single isomer, unassigned) [Compound 1], for which the IC50 was determined as 58 nM at human MRGPRX2 and 1940 nM in the series on LAD-2 cells [2]. At hERG channel, the “hERG Inhibition (%) @ 1 μM” value came to 10%. The “hERG Inhibition (%) @ 20 μM” value at hERG channel was found to be 35%.

The compound `C[C@@H](C(=O)Nc1cn2c(n1)CC[C@H]2c1cc(F)cc(F)c1)N1CCC(F)(F)[C@@H](c2ccc(=O)[nH]c2)C1` (single isomer, unassigned) [Compound 494] displayed an IC50 at human MRGPRX2 of 20 nM. Moreover, in the series on LAD-2 cells [1], the midpoint of inhibition, the IC50, lay at 6.9 nM and the activity at 0.25 µM amounted to 13%. In addition, at hERG channel, the “hERG Inhibition (%) @ 1 μM” value is 9% and the “hERG Inhibition (%) @ 20 μM” value amounted to 54%.
